This is an account of results in US9789114B2, “Compounds as HIF-1α inhibitors and manufacturing process thereof” (DONGGUK UNIVERSITY INDUSTRY-ACADEMIC COOPERATION FOUNDATION, priority 2011, dated 2017).

One data set deals with GAPDH. As to the kind of experiment: GAPDH expression level (internal control) in western blot, HCT116 cells. Type of data set: cell-based, human. The following applies: HCT116, hypoxia 1% O2, 0-30 μM, 12 hours, FIG. 1. The method, then: (§1) First, HCT116 human colon cancer cells (ATCC #CCL-247) were plated at the concentration of 2×10^5 cells/ml. After 24 hours, the cells were incubated under hypoxia (1% O2, 94% N2, and 5% CO2, expressed as 1% O2 in FIG. 1) for 4 hours in order to induce HIF-la accumulation. Cells were treated with the compounds at various concentrations (0, 3, 10, 20, and 30 μM) for 12 hours under hypoxia. The cells were then harvested, and lysed in RIPA buffer to obtain nuclear extracts. Cells grown at 20% O2 (normoxia) were used as control groups to compare HIF-1α-mediated gene expression under each condition. 30 μg of the nuclear extracts per sample was separated by SDS-PAGE (sodium dodecyl sulfate-polyacrylamide gel electrophoresis), and was then transferred to PVDF (polyvinylidene fluoride membrane) membranes. After membranes were probed with HIF-1α antibodies (R&D System), HIF-1α proteins were detected with HRP-conjugated secondary antibodies (Amersham-Pharmacia). GAPDH (Glyceraldehyde 3-phosphate dehydrogenase) was used as an internal control for loading in western blot analysis.

The subject of data set [1] is HCT116 colon cancer cells. The data set can be described thus: In vivo anti-cancer activity by oral administration, HCT116 tumor in nude mice. The following applies: for inhibition in vivo at 20 mg/kg: Mus musculus. More on the design: species or system BALB/c nu/nu mice. The method, then:
<Example 4> In Vivo Anti-Cancer Activity of Compounds by Oral Administration
(§2) In vivo anti-cancer activity of the compounds according to the present invention, I-3, I-6, I-8, I-16, I-19, I-22, I-23, and I-24, was measured in mice to evaluate in vivo efficacy by oral administration. Specifically, the nude mice were divided into test groups and control groups, each consisting of 4 mice. In vivo efficacy was evaluated by measuring body weight, tumor volume, and tumor weight.
(§3) Female nude mice 6 weeks old (BALB/c nu/nu, Charles River) were bred in germ-free breeding rooms maintained at constant temperature and humidity. After the nude mice were anesthetized, HCT116 colon cancer cells were implanted at a count of […] cells/mouse into the rectum in BALB/c nu/nu mice and then the incisions were closed with surgical clips. The size of tumor was measured by a caliper. When the size of transplanted tumor reached to 50˜60 mm^3, the above compounds according to the present invention were administered. In more detail, after the above compounds in test groups were dissolved at concentration of 20 mg/kg in a solvent containing 80% of physiological saline, 10% of DMAC (dimethylacetamide), and 10% Tween 80 (hereinafter referred to as ‘Solvent A’), […] of dissolved compounds were orally administered once a day. Mice in control groups were treated with […] of Solvent A alone once daily.
(§4) Tumor volume and body weight were measured to identify in vivo anti-cancer activity of the compounds according to the present invention by repetitive oral administration. Tumor volume and tumor growth inhibition (TGI) in Table 2 were calculated according to the below Mathematic FIG. 1 and FIG. 2, respectively. Tumor growth inhibition was converted to a percentage in Table 2.

Data set [2] in a line: Body weight change and side effects during 14 days of oral treatment in nude mice. Type of data set: in vivo, BALB/c nu/nu mice. On the procedure:
as §2, §3, §4
Moreover, severe side effects and statistically significant changes of body weight in all mice treated compounds were not shown for 14 days, comparing to control groups treated with vehicle. (Table 3)

A further data set concerns the target T1, HIF-1α (Homo sapiens, UniProt Q16665).
T1 construct: endogenous in cells; host or cells: HCT116 human colon cancer cells (ATCC #CCL-247)
The data set can be described thus: Inhibition of hypoxia-induced HIF-1α accumulation, western blot in HCT116 cells. The following applies: HCT116, hypoxia 1% O2, 0-30 μM, 12 hours, FIG. 1. The format is cell-based. On the procedure: <Experiment 2> In Vitro Studies for Inhibition of Hypoxia-Induced HIF-1α Accumulation
Inhibition of HIF-1α accumulation by the compounds according to the present invention was determined in HCT116 human colon cancer cells. In particular, western blot analysis was used to identify the compounds, I-3, I-6, I-8, I-16, I-19, I-22˜I-24, and I-27˜I-36, which inhibited HIF-1α accumulation under hypoxia.
as §1

Data set [3] deals with HIF-1α-mediated HRE transcriptional activity. As to the kind of experiment: Assay for inhibition of HIF-1α-mediated transcriptional activity (HRE reporter assay). Type of data set: cell-based, human. The following applies: Homo sapiens, HCT-116, HCT116 cells, 12 hours under hypoxia (1% O2), read-out: Inhibitory activity against HIF-1α (10 μM). On the procedure:
<Experiment 1> Assay for Inhibition of HIF-1α-Mediated Transcriptional Activity (HRE Reporter Assay)
The compounds can be developed as anti-cancer drugs, because the compounds inhibiting HIF-1α-mediated HRE transcriptional activity induced by hypoxia can suppress the growth and metastasis of cancer.
Inhibitory effects of the compounds according to the present invention, from Formula I-1 to I-42, on HIF-1α-mediated transcriptional activity were evaluated using this assay. pGL3-HRE-luciferase vector was constructed as follows. Six copies of HRE (Hypoxia Responsive Element, 5′-ACGTG-3′) from human VEGF genes were inserted into the multi-cloning site of a pGL3-basic vector (Promega). A luciferase gene was used as a reporter gene.
In detail, HCT116(ATCC #CCL-247) human colon cancer cells were seeded in 48-well cell culture plates. The cells were co-transfected with 25 ng of pGL3-HRE-luciferase and 2.5 ng of Renila control vectors using Polyfect reagent next day. After 24 hours of incubation, the cells were incubated for an additional 4 hours with replaced cell culture media. The cells were treated with various concentrations (0, 1, 3, 5, 10, and 20 μM) of the above compounds according to the present invention and incubated for 12 hours under hypoxia (1% O2, 94% N2, and 5% CO2). The luciferase assay was performed using a dual-luciferase reporter assay system (Promega). After cell lysate preparation with RIPA buffer, induced luciferase activity under hypoxic conditions was determined to examine inhibitory effects of the compounds according to the present invention, from Formula I-1 to I-42, on HIF-1α-mediated transcriptional activity.

Setting [4] is: HCT-116, 72 h, day 3, 20 mg/kg oral once a day, read-out: TGI (tumor growth inhibition), tumor volume.
The mark [5] stands for this setting: HCT-116, 120 h, day 5, 20 mg/kg oral once a day, read-out: TGI (tumor growth inhibition), tumor volume.
The mark [6] stands for this setting: HCT-116, 168 h, day 7, 20 mg/kg oral once a day, read-out: TGI (tumor growth inhibition), tumor volume.
The mark [7] stands for this setting: HCT-116, 240 h, day 10, 20 mg/kg oral once a day, read-out: TGI (tumor growth inhibition), tumor volume.
[8] abbreviates: HCT-116, 288 h, day 12, 20 mg/kg oral once a day, read-out: TGI (tumor growth inhibition), tumor volume.
Setting [9] is: HCT-116, 336 h, day 14, 20 mg/kg oral once a day, read-out: TGI (tumor growth inhibition), tumor volume.
The mark [10] stands for this setting: HCT-116, 336 h, day 14, 20 mg/kg oral once a day, read-out: TGI (tumor growth inhibition), tumor weight.
Where [11] appears, read: day 3, 20 mg/kg oral once a day.
[12] abbreviates: day 5, 20 mg/kg oral once a day.
[13] abbreviates: day 7, 20 mg/kg oral once a day.
[14] abbreviates: day 10, 20 mg/kg oral once a day.
Setting [15] is: day 12, 20 mg/kg oral once a day.
The mark [16] stands for this setting: day 14, 20 mg/kg oral once a day.
Setting [17] is: day 0, 20 mg/kg oral once a day.

Each structure is given as a SMILES string. Like-named read-outs stand apart in the source and are kept apart here.

T1 sequence (Q16665 whole entry): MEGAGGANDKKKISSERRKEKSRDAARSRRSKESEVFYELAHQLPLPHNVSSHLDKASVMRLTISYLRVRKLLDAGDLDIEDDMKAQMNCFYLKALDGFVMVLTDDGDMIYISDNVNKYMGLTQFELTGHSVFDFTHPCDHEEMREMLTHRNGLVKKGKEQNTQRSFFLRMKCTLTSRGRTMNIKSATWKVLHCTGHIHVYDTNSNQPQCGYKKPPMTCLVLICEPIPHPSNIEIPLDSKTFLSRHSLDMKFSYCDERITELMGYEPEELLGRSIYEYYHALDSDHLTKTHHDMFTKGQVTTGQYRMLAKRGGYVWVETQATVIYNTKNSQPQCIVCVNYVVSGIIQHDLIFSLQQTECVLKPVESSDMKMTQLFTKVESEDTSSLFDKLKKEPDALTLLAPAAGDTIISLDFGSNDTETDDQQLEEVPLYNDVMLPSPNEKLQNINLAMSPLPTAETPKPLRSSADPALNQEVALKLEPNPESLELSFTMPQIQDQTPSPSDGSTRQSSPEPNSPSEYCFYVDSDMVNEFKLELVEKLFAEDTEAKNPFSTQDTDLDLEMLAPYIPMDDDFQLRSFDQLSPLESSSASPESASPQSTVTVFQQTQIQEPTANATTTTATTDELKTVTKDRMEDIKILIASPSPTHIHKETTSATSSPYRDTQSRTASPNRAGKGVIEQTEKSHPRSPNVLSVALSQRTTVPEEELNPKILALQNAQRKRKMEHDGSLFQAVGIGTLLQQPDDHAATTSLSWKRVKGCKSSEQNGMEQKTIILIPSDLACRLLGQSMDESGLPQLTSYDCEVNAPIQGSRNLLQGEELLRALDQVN

For the compound `CN1CCN(C(=O)CCOc2ccc(C34CC5CC(CC(C5)C3)C4)cc2)CC1` [Compound I-8, 3-(4-(Adamantan-1-yl)phenoxy)-1-(4-methylpiperazin-1-yl)propan-1-one], in the data set with GAPDH, the GAPDH expression levels result is listed as “did not affect GAPDH expression levels”. For the same compound, the inhibition in vivo at 20 mg/kg in data set [1] (setting [4]) is 27.6%; in data set [1] (setting [5]) it was 29%; in data set [1] (setting [6]) it was 30%; in data set [1] (setting [7]), 29.3%; in data set [1] (setting [8]) it was 28.7%; in data set [1] (setting [9]) it was 29.3%. The inhibition in vivo at 20 mg/kg in data set [1] (setting [10]) amounted to 31%. Besides, the Tumor volume in data set [1] (setting [11]) came out at 24.6 ± 5.1 mm^3; in data set [1] (setting [12]), 65.5 ± 9.0 mm^3; in data set [1] (setting [13]), 122.2 ± 7.9 mm^3; in data set [1] (setting [14]) it was 184.3 ± 10.0 mm^3; in data set [1] (setting [15]), 319.7 ± 22.0 mm^3; in data set [1] (setting [16]), 471.1 ± 29.0 mm^3. The compound also returned a Tumor weight in data set [1] (setting [16]) of 1634.6 ± 357.2 mg. For the same compound, the Body weight change in data set [2] (setting [17]) turned out to be 100.0 ± 0.0%; in data set [2] (setting [11]), 102.2 ± 2.8%; in data set [2] (setting [12]), 103.4 ± 2.8%; in data set [2] (setting [13]), 102.6 ± 2.2%; in data set [2] (setting [14]) it was 102.9 ± 1.5%; in data set [2] (setting [15]) it was 101.9 ± 1.0%. The compound also yielded a Body weight change in data set [2] (setting [16]) of 101.7 ± 2.6%. Besides, at HIF-1α, the HIF-1α degradation entry is “promoted HIF-1α degradation”. Also, the “inhibitory effects on HIF-1α accumulation” value on HIF-1α is given as “significant inhibitory effects on HIF-1α accumulation”. Moreover, in data set [3], the inhibition at 10 µM lay within 51 to 75%.
On to `CN1CCN(C(=O)C(C)(C)Oc2ccc(C34CC5CC(CC(C5)C3)C4)cc2)CC1` [Compound I-23, 2-(4-(Adamantan-1-yl)phenoxy)-2-methyl-1-(4-methylpiperazin-1-yl)propan-1-one], for which the inhibition in vivo at 20 mg/kg came to 13.5% in data set [1] (setting [4]); 14.8% in data set [1] (setting [5]); 12.7% in data set [1] (setting [6]); 13.1% in data set [1] (setting [7]); 13.1% in data set [1] (setting [8]); 14.6% in data set [1] (setting [9]). Further, the inhibition in vivo at 20 mg/kg in data set [1] (setting [10]) turned out to be 14.5%. In addition, the Tumor volume in data set [1] (setting [11]) worked out at 40.9 ± 8.2 mm^3; in data set [1] (setting [12]), 98.0 ± 13.9 mm^3; in data set [1] (setting [13]), 182.4 ± 19.9 mm^3; in data set [1] (setting [14]) it was 352.7 ± 53.6 mm^3; in data set [1] (setting [15]), 577.3 ± 74.1 mm^3; in data set [1] (setting [16]) it was 987.6 ± 143.7 mm^3. For the same compound, the Tumor weight in data set [1] (setting [16]) is listed as 3659.9 ± 434.8 mg. The Body weight change in data set [2] (setting [17]) is recorded as 100.0 ± 0.0%; in data set [2] (setting [11]) it was 100.8 ± 1.1%; in data set [2] (setting [12]) it was 101.0 ± 1.6%; in data set [2] (setting [13]), 100.9 ± 0.7%; in data set [2] (setting [14]), 101.9 ± 1.1%; in data set [2] (setting [15]) it was 101.6 ± 1.3%. Moreover, in data set [2] (setting [16]), the Body weight change is 102.0 ± 2.0%. The inhibition at 10 µM in data set [3] is 76 to 100%.
Consider `CN(C)CCNC(=O)C(C)(C)Oc1ccc(C23CC4CC(CC(C4)C2)C3)cc1` [Compound I-24, 2-(4-(Adamantan-1-yl)phenoxy)-N-(2-(dimethylamino)ethyl)-2-methylpropanamide], for which the inhibition in vivo at 20 mg/kg is 19.5% in data set [1] (setting [4]); 18.4% in data set [1] (setting [5]); 15.4% in data set [1] (setting [6]); 15.8% in data set [1] (setting [7]); 14.3% in data set [1] (setting [8]); 14.4% in data set [1] (setting [9]). Also, in data set [1] (setting [10]), the inhibition in vivo at 20 mg/kg was 13.9%. Further, the Tumor volume in data set [1] (setting [11]) worked out at 38.1 ± 6.4 mm^3; in data set [1] (setting [12]) it was 93.8 ± 21.0 mm^3; in data set [1] (setting [13]), 176.8 ± 27.6 mm^3; in data set [1] (setting [14]), 341.7 ± 58.8 mm^3; in data set [1] (setting [15]), 569.1 ± 72.4 mm^3; in data set [1] (setting [16]), 990.1 ± 140.3 mm^3. The compound also yielded a Tumor weight in data set [1] (setting [16]) of 3685.5 ± 357.5 mg. Besides, the Body weight change was found to be 100.0 ± 0.0% in data set [2] (setting [17]); 103.5 ± 3.0% in data set [2] (setting [11]); 104.0 ± 3.6% in data set [2] (setting [12]); 103.6 ± 3.6% in data set [2] (setting [13]); 105.0 ± 4.0% in data set [2] (setting [14]); 104.9 ± 4.1% in data set [2] (setting [15]). Also, the Body weight change in data set [2] (setting [16]) was 106.5 ± 4.5%. For the same compound, the inhibition at 10 µM in data set [3] lay in the range of 76 to 100%.
